The source made the active and inactive calls. The rule behind the calls is not given here.

The values below come from PubChem BioAssay AID540252 (Sanford-Burnham Center for Chemical Genomics, 2011).

In the assay the target is glucose-6-phosphate dehydrogenase-6-phosphogluconolactonase (Plasmodium falciparum 3D7). As to the kind of experiment: PfG6PD enzyme inhibitors, direct NADPH readout, dose response, orthogonal assay, biochemical, end-point NADPH detection (AID 540252). The conditions noted are these: purified PfG6PD enzyme.
`OCCN1CCN(C(=S)c2ccc(Cl)c(Cl)c2)CC1`: the IC50 (in general, the concentration at which inhibition is half-maximal) is > 80 µM (inactive). Then `O=c1c2ccccc2sn1-c1cccc(Cl)c1`, with 13.7 µM; and `CN1CC[C@@]2(C)c3cc(O)ccc3N(C)[C@@H]12`, with > 80 µM (inactive). Then `CCN(CC)c1ccc(NC(=O)c2ccccc2Br)cc1S(=O)(=O)Nc1ccccc1OC`, with > 80 µM (inactive); and `CN(CCO)c1cc(Sc2nc3ccccc3s2)c2nonc2c1[N+](=O)[O-]`, with 24 µM. As for `Nc1ccc(N(CCO)CCO)cc1`, the IC50 was > 80 µM (inactive). Then `Cc1ccccc1N/C(SCc1cccc(Br)c1)=C(/C#N)C(N)=O`, with > 80 µM (inactive); and `COc1ccc(Nc2cc(C)c3c(O)cccc3n2)cc1`, with > 80 µM (inactive); and `COc1cc(/C=C2\CC/C(=C\c3cc(OC)c(O)c(OC)c3)C2=O)cc(OC)c1O`, with > 80 µM (inactive). The same measure for `Cc1cc(C)c2c(=O)n(CC(=O)Nc3ccc(Br)c(C)c3)sc2n1`: > 80 µM (inactive); for `O=C1C=CC(=O)N1c1ccc(-c2nc3ccccc3o2)cc1`: > 80 µM (inactive); for `CCN(CC)C(=O)c1c(C)[nH]c(=S)c(C#N)c1-c1ccco1`: > 80 µM (inactive). As to `COc1cccc(C2(c3cccc(OC)c3)CC2C(=O)Nc2ccc(F)cc2)c1` (stereo not drawn), the IC50 is > 80 µM (inactive). The same measure for `CCn1c2ccccc2c2cc(/C=N/n3cn[nH]c3=S)ccc21`: > 80 µM (inactive); for `COc1cc(N)c2ncccc2c1Cl`: > 80 µM (inactive). The same measure for `CC1CCc2c(nc3sc4c(c3c2N)CCCC4)C1` (stereo not drawn): > 80 µM (inactive); for `Cc1ccc(S(=O)(=O)Oc2cccc(/C=N/Nc3ccc(C(=O)O)cc3)c2)cc1`: > 80 µM (inactive); for `CN(C)S(=O)(=O)c1cccc(-n2sc3ccccc3c2=O)c1`: 13.5 µM. The same measure for `Cc1nn(-c2ccccc2)c(Cl)c1/C=N/Nc1nc2ccccc2n1C`: > 80 µM (inactive). Turning to `CCc1cc(-c2n[nH]c(C)c2-c2nc3ccccc3n2C)c(O)cc1O`, the IC50 was > 80 µM (inactive). Then `Cc1ccc(/C=C/C(=O)Nc2ccc([N+](=O)[O-])c(NC(=O)/C=C/c3ccc(C)o3)c2)o1`, with 33.6 µM; and `CC1(OC(=O)C2CCCC2)C(=O)C=C2C=C(c3ccsc3)N(CC3CC3)C=C2C1=O` (stereo not drawn), with > 80 µM (inactive). The same measure for `O=C(O)c1ccc(-n2c(-c3cc(-c4ccco4)[nH]n3)n[nH]c2=S)cc1`: > 80 µM (inactive). The same measure for `Cn1c(=O)[nH]c(=O)c2c1nc([N+](=O)[O-])n2Cc1ccccc1`: > 80 µM (inactive). For the compound `O=c1c2ccccc2sn1-c1ccc(Cl)cc1`, the IC50 was 17.2 µM. As for `COc1cccc(/C=N/NC(=O)CSc2cccc3cccnc23)c1`, the IC50 was > 80 µM (inactive). `O=c1[nH]c(NCCO)c(N=Cc2ccccc2)c(=O)[nH]1`: the IC50 was > 80 µM (inactive). Then `COc1ccc(C(=O)Nc2sc3c(c2C(=O)O)CC(C)(C)OC3)cc1`, with > 80 µM (inactive).

With `Cc1cccc(C(=O)Nc2sc3c(c2C(=O)O)CCCC3)c1`, the IC50 is > 80 µM (inactive). Then `COc1cccc(C(=O)Nc2nnc(C(C)C)s2)c1`, with > 80 µM (inactive); and `Cc1cccc(NC2=C(NC(=O)c3ccccc3)C(=O)c3ccccc3C2=O)c1`, with > 80 µM (inactive); and `CN(C)c1ccc(Cc2cc3c(O)ccc(O)c3cc(Cc3ccc(N(C)C)cc3)c2=O)cc1`, with > 80 µM (inactive). The same measure for `CCOC(=O)c1sc(NC(=O)CSc2nnc(Cc3ccccc3)o2)c(C#N)c1C`: > 80 µM (inactive); for `O=C(Sc1n[nH]c(=O)[nH]c1=O)c1ccccc1`: 23.3 µM.

Turning to `Cc1cc(NC(=O)c2oc3ccccc3c2C)ccc1-n1cnnn1`, the IC50 was > 80 µM (inactive). For the compound `O=C1Nc2cc(C(=O)NCCCN3CCCC3)ccc2S/C1=C\c1ccccc1`, the IC50 is > 80 µM (inactive). The same measure for `COc1ccc(-n2sc3ccccc3c2=O)cc1`: 13.3 µM.

Consider `COc1cccc(CNc2ccc3[nH]c(=O)[nH]c3c2)c1OCc1ccccc1Cl`, for which the IC50 is > 80 µM (inactive). Then `O=C(Nc1ccccn1)c1sc2cc([N+](=O)[O-])ccc2c1Cl`, with > 80 µM (inactive); and `COc1cccc(-c2c(C(=O)N/N=C/c3ccc(C)s3)nnn2-c2nonc2N)c1`, with > 80 µM (inactive). Then `CCCN1CCc2cccc3c2[C@H]1Cc1ccc(O)c(O)c1-3`, with > 80 µM (inactive). The same measure for `Nn1c(CSc2nc3ccccc3o2)nnc1CSc1nc2ccccc2o1`: > 80 µM (inactive); for `Cc1ccc(NC(=O)Cn2sc3ccccc3c2=O)cc1`: 15 µM; for `Cc1ccnc(-n2sc3ccccc3c2=O)n1`: > 80 µM (inactive). Take `c1nc(SSc2ncnc3nc[nH]c23)c2[nH]cnc2n1`: the IC50 was 28.7 µM.

On to `Cc1cc(O)c(-c2cc(O)c(C)cc2O)cc1O`, for which the IC50 is > 80 µM (inactive). Regarding `Cc1ccc(S(=O)(=O)Nc2nc(C)c(C(=O)N/N=C/c3ccccc3)s2)cc1`, the IC50 is > 80 µM (inactive).

Take `COC(=O)c1cc2c(n1S(=O)(=O)c1ccc(C)cc1)C(=O)C(=O)c1[nH]cc(C(=O)OCc3ccccc3)c1-2`: the IC50 was > 80 µM (inactive).

Consider `Cc1cccc(C2(c3cccc(C)c3)CC2C(=O)Nc2ccc([N+](=O)[O-])cc2O)c1` (stereo not drawn), for which the IC50 is > 80 µM (inactive). Then `COC(=O)CCC(=O)OC1(C)C(=O)C2=CN(c3ccc(OC)cc3)C(c3ccc(OC)cc3)=CC2=C(Br)C1=O` (stereo not drawn), with > 80 µM (inactive); and `Cc1ccc(Nc2cc(C)c(O)c(C)c2)cc1`, with > 80 µM (inactive); and `CCOc1ccccc1C=NNC(=O)CCCCC(=O)NN=Cc1ccccc1OCC`, with > 80 µM (inactive). The same measure for `COc1ccc(OC)c2c1C(=O)C(Cl)=C(Cl)C2=O`: 23.3 µM; for `CCOC(=O)c1c(C2COc3ccccc3O2)csc1NC(=O)c1ccco1` (stereo not drawn): > 80 µM (inactive); for `Cc1ccc(C(=O)NCC(=O)NCC(=O)OCC(=O)c2ccc([N+](=O)[O-])cc2)cc1`: 48.4 µM.

Regarding `COc1cc(O)c(C(=O)O)c(-c2cc(O)c(O)cc2C)c1`, the IC50 was > 80 µM (inactive). The same measure for `Cc1ccc2nc(-c3ccc(NC(=S)NC4CC(C)(C)NC(C)(C)C4)cc3)sc2c1`: > 80 µM (inactive); for `CN1CCc2cccc3c2[C@H]1Cc1ccc(O)c(O)c1-3`: > 80 µM (inactive); for `Cc1cc(O)c(C(C)C)cc1N=Cc1ccc(N(C)C)cc1`: > 80 µM (inactive). Consider `Cc1cccc(-n2c(=S)[nH]c3sc4c(c3c2=O)CCc2ccccc2-4)c1`, for which the IC50 was > 80 µM (inactive). The same measure for `COc1cc(OC)c(C2CC(=O)N3CN(c4ccccc4)CSC3=C2C#N)cc1OC` (stereo not drawn): > 80 µM (inactive). The same measure for `c1cc(CNc2ccc3c(c2)OCO3)ccn1`: > 80 µM (inactive); for `CN(C)C=Nc1ccc2nc3c(cc2c1)[nH]c1ccccc13`: > 80 µM (inactive); for `C=C1C(=O)O[C@@H]2C[C@@H](C)[C@@H]3C=CC(=O)[C@@]3(C)[C@@H](OC(=O)CC(=O)O[C@H]3[C@@H]4C(=C)C(=O)O[C@@H]4C[C@@H](C)[C@@H]4C=CC(=O)[C@]43C)[C@H]12`: > 80 µM (inactive). The same measure for `Cc1ccc(/C=C/C(=O)NC2CCCCCCC2)o1`: > 80 µM (inactive); for `CN(C)c1ccc(/C=C/c2ccc3c4ccccc4ccc3[n+]2-c2ccccc2)cc1`: > 80 µM (inactive). Regarding `O=C(O)c1ccccc1NS(=O)(=O)c1cccc(-n2sc3ccccc3c2=O)c1`, the IC50 was > 80 µM (inactive). `Cc1ccc(-c2nc(N3CCOCC3)s[n+]2-c2ccccc2)cc1`: the IC50 was > 80 µM (inactive). For `O=C1CCN(c2ccccc2)N1`, the IC50 was > 80 µM (inactive). The same measure for `COC(=O)CCC(=O)OC1(C)C(=O)C2=CN(c3ccccc3)C(c3ccc(OC)cc3)=CC2=C(Br)C1=O` (stereo not drawn): > 80 µM (inactive).

For `CC1COCC(C)N1C1=C(Cl)C(=O)c2ccccc2C1=O` (stereo not drawn), the IC50 was > 80 µM (inactive). Then `COc1ccc(C(=O)c2c(C(F)(F)F)oc3c2C(=O)c2ccccc2C3=O)cc1`, with > 80 µM (inactive); and `Cc1ccc(Cl)cc1NC1=C/C(=N\S(=O)(=O)c2cccs2)c2ccccc2C1=O`, with > 80 µM (inactive). Then `COc1c(O)ccc2c1CN1CCc3cc4c(cc3C1C2)OCO4` (stereo not drawn), with > 80 µM (inactive); and `COC1=C(N)C(=O)c2nc(C)ccc2C1=O`, with > 80 µM (inactive); and `O=C1C=CC(=O)N1CCNc1ncc(C(F)(F)F)cc1Cl`, with 65.4 µM. Then `Brc1cc2[nH]cnc2c2ccccc12`, with > 80 µM (inactive); and `CCOC(=O)CSc1nnc(NC(=O)c2cccc([N+](=O)[O-])c2)s1`, with > 80 µM (inactive); and `O=C1NC(=O)C(=Cc2ccc(-c3ccccc3[N+](=O)[O-])o2)C(=O)N1`, with > 80 µM (inactive). With `O=C1NC(=S)NC(=O)C1=Cc1ccc(Br)s1`, the IC50 is > 80 µM (inactive). Then `C[n+]1c(-c2ccccc2)cc2c(=Cc3ccc([N+](=O)[O-])cc3)c3ccccc3n21`, with > 80 µM (inactive). The same measure for `CCOc1ccccc1NC(=O)CCCc1nc2ccccc2c(=O)[nH]1`: > 80 µM (inactive); for `Oc1ccc(NCc2ccccc2OCc2ccccc2)cc1`: > 80 µM (inactive).

For `CC1(OC(=O)C2CCCC2)C(=O)C=C2C=C(c3ccsc3)N(CCc3c[nH]c4ccccc34)C=C2C1=O` (stereo not drawn), the IC50 is > 80 µM (inactive). Then `COc1ccc(CN(C)S(=O)(=O)c2nnc(NC(=O)c3cccc(C)c3)s2)cc1OC`, with > 80 µM (inactive). The same measure for `COc1ccc(N2CSC3=C(C#N)C(c4ccc(OC)c(OC)c4)CC(=O)N3C2)c(OC)c1` (stereo not drawn): > 80 µM (inactive); for `CCN(CC)c1ccc(C(=C2C=CC(=[N+](CC)CC)C=C2)c2ccccc2)cc1`: > 80 µM (inactive); for `CCc1nnc(NC(=O)c2ccc(Cl)nc2)s1`: > 80 µM (inactive).
